Data published in patent US20230146455A1, “TREATMENT OF INFLAMMATORY DISEASES WITH PEPTIDES AND PHARMACEUTICAL COMPOSITIONS” (Yuyu Pharma, Inc., priority 2020, published 2023).
“And” between values parts separate entries of the source, which are not always exact repeats. Identical values can stand only once. Where a SMILES comes first, the peptide text is derived from it. [ ]: non-standard residue; d: D form. Hyp = O=C(O)[C@@H]1C[C@@H](O)CN1

Experiments:
IL-8/CXCL8 = assay: Example 8 main study Luminex, LPS hPBMCs: IL-8/CXCL8; format: cell-based, human; details: for IL-8/CXCL8 Concentration: single replicates (1st, 2nd, 3rd)
Method: (§1) Human PBMCs were pretreated with YY-101, YDE-011, YDE-043 or reference compound; Xiidra® at various concentration (ranging from […] to 500 nM) for 2 h before stimulation. An equal volume of 0.5% DMSO was used as a vehicle control. Then, the cells were treated with LPS at 5 ug/ml, which was selected based on the pilot study. The supernatants from treated cells were harvested at 24 h and placed in a 96 well for Luminex cytokine & chemokine profiling using a Luminex 200 multiplex assay (Luminex; R&D system, USA).
(§2) The main study arm with triplicate wells per group in a 24-well plate: • 1. Blank • 2. PBMC: 0.5% DMSO • 3. PBMC+LPS (5 ug/ml) • 4. PBMC+YY-101 500 nM • 5. PBMC+YY-101 50 nM • 6. PBMC+YY-101 5 nM • 7. PBMC+YY-101 0.5 nM • 8. PBMC+LPS (5 ug/ml)+Xiidra® 500 nM • 9. PBMC+LPS (5 ug/ml)+Xiidra® 50 nM • 10. PBMC+LPS (5 ug/ml)+Xiidra® 5 nM • 11. PBMC+LPS (5 ug/ml)+Xiidra® 0.5 nM • 12. PBMC+LPS (5 ug/ml)+Xiidra® 0.05 nM • 13. PBMC+LPS (5 ug/ml)+Xiidra® 0.005 nM • 14. PBMC+LPS (5 ug/ml)+YY-101 500 nM • 15. PBMC+LPS (5 ug/ml)+YY-101 50 nM • 16. PBMC+LPS (5 ug/ml)+YY-101 5 nM • 17. PBMC+LPS (5 ug/ml)+YY-101 0.5 nM • 18. PBMC+LPS (5 ug/ml)+YY-101 0.05 nM • 19. PBMC+LPS (5 ug/ml)+YY-101 0.005 nM • 20. PBMC+LPS (5 ug/ml)+YDE-011 500 nM • 21. PBMC+LPS (5 ug/ml)+YDE-011 50 nM • 22. PBMC+LPS (5 ug/ml)+YDE-011 5 nM • 23. PBMC+LPS (5 ug/ml)+YDE-011 0.5 nM • 24. PBMC+LPS (5 ug/ml)+YDE-011 0.05 nM • 25. PBMC+LPS (5 ug/ml)+YDE-011 0.005 nM • 26. PBMC+LPS (5 ug/ml)+YDE-043 500 nM • 27. PBMC+LPS (5 ug/ml)+YDE-043 50 nM • 28. PBMC+LPS (5 ug/ml)+YDE-043 5 nM • 29. PBMC+LPS (5 ug/ml)+YDE-043 0.5 nM • 30. PBMC+LPS (5 ug/ml)+YDE-043 0.05 nM • 31. PBMC+LPS (5 ug/ml)+YDE-043 0.005 nM
(§3) Multiplex assay was used to measure 30 cytokines and chemokines. The 1:200 diluted cell supernatant and serial dilution of the standard were dispensed into a 96 well plate at 50 ul/well. Then, the pre-mixed cocktail of antibody-coated magnetic beads was dispensed at 50 ul/well and incubated at room temperature for 2 h in a horizontal orbital microplate shaker at 800±500 rpm. The beads were washed using a magnetic device to prevent loss. The biotin-antibody was dispensed in 50 ul of each well and incubated at room temperature for 1 h in a shaker at 800±500 rpm. After washing, streptavidin-PE was added at 50 ul/well and incubated at room temperature for 30 min in a shaker under the same conditions. Finally, after washing, wash buffer (100 ul/well) was added to the plate and incubated in a shaker for 2 min. The Luminex™ 200 setting were set according to the manufacturer's protocol. The data was calculated with a standard five-parameter logistic nonlinear regression analysis of the data (xPonent software 4.2, USA). Results were presented as concentration (ng/ml or pg/ml).

MMP-3 = assay: Example 8 main study Luminex, LPS hPBMCs: MMP-3; format: cell-based, human; details: for MMP-3 Concentration: single replicates
Method: as §1, §2, §3

[1] = PBMC + LPS(5 ug/ml) + test article 0.005 nM
[2] = PBMC + LPS(5 ug/ml) + test article 0.05 nM
[3] = PBMC + LPS(5 ug/ml) + test article 0.5 nM
[4] = PBMC + LPS(5 ug/ml) + test article 5 nM
[5] = PBMC + LPS(5 ug/ml) + test article 50 nM
[6] = PBMC + LPS(5 ug/ml) + test article 500 nM
[7] = at as low as 5 μM, LPS 5 ug/mL 24 hrs
[8] = PBMC + LPS(5 ug/ml) + YDE043 0.005 nM
[9] = PBMC + LPS(5 ug/ml) + YDE043 0.05 nM
[10] = PBMC + LPS(5 ug/ml) + YDE043 0.5 nM
[11] = PBMC + LPS(5 ug/ml) + YDE043 5 nM
[12] = PBMC + LPS(5 ug/ml) + YDE043 50 nM
[13] = PBMC + LPS(5 ug/ml) + YDE043 500 nM

CC(C)C[C@H](NC(=O)[C@H](CCC(N)=O)NC(=O)CNC(=O)[C@@H]1C[C@@H](O)CN1)C(=O)NCC(=O)O [YDE-043] (H-[Hyp]GQLG-OH; N-terminus and C-terminus assumed)
IL-8/CXCL8 Concentration, Mean (IL-8/CXCL8; [1]): 59062.0 pg/mL | IL-8/CXCL8 Concentration (IL-8/CXCL8; [1]): 56206.5 pg/mL and 53607.2 pg/mL and 67372.3 pg/mL | IL-8/CXCL8 Concentration, Mean (IL-8/CXCL8; [2]): 51146.6 pg/mL | IL-8/CXCL8 Concentration (IL-8/CXCL8; [2]): 48485.5 pg/mL and 53107.5 pg/mL and 51846.7 pg/mL | IL-8/CXCL8 Concentration, Mean (IL-8/CXCL8; [3]): 52327.4 pg/mL | IL-8/CXCL8 Concentration (IL-8/CXCL8; [3]): 55144.2 pg/mL and 51593.2 pg/mL and 50244.9 pg/mL | IL-8/CXCL8 Concentration, Mean (IL-8/CXCL8; [4]): 56067.9 pg/mL | IL-8/CXCL8 Concentration (IL-8/CXCL8; [4]): 56540.0 pg/mL and 58269.2 pg/mL and 53394.4 pg/mL | IL-8/CXCL8 Concentration, Mean (IL-8/CXCL8; [5]): 55575.7 pg/mL | IL-8/CXCL8 Concentration (IL-8/CXCL8; [5]): 57759.9 pg/mL and 58638.2 pg/mL and 50329.0 pg/mL | IL-8/CXCL8 Concentration, Mean (IL-8/CXCL8; [6]): 51601.8 pg/mL | IL-8/CXCL8 Concentration (IL-8/CXCL8; [6]): 51413.7 pg/mL and 49678.2 pg/mL and 53713.6 pg/mL | LPS-induced IL-8 (in words) (IL-8/CXCL8; [7]): significantly reduced | MMP-3 Concentration, Mean (MMP-3; [8]): 7677.2 pg/mL | MMP-3 Concentration (MMP-3; [8]): 7173.5 pg/mL and 7776.9 pg/mL and 8081.3 pg/mL | MMP-3 Concentration, Mean (MMP-3; [9]): 7136.1 pg/mL | MMP-3 Concentration (MMP-3; [9]): 7061.2 pg/mL and 7248.5 pg/mL and 7098.6 pg/mL | MMP-3 Concentration, Mean (MMP-3; [10]): 7173.5 pg/mL | MMP-3 Concentration (MMP-3; [10]): 7098.6 pg/mL and 7248.5 pg/mL and 7173.5 pg/mL | MMP-3 Concentration, Mean (MMP-3; [11]): 7424.0 pg/mL | MMP-3 Concentration (MMP-3; [11]): 7474.3 pg/ml (2×) and 7323.6 pg/ml | MMP-3 Concentration, Mean (MMP-3; [12]): 7337.3 pg/mL | MMP-3 Concentration (MMP-3; [12]): 7701.1 pg/mL and 7398.9 pg/mL and 6911.8 pg/mL | MMP-3 Concentration, Mean (MMP-3; [13]): 7311.7 pg/mL | MMP-3 Concentration (MMP-3; [13]): 7098.6 pg/mL and 7663.2 pg/mL and 7173.5 pg/mL | LPS-induced MMP3 (in words) (MMP-3; [7]): significantly reduced
